Results as given in patent US20040143025A1, “Carbon monoxide generating compunds for treatment of vascular, inflammatory and immune disorders” (priority 2002, published 2004).

Legend:
[1] = tested on: rat liver; assay: Histologic severity of I/R injury, Banff criteria; design: species or system Sprague Dawley (SD) rats; conditions: CO plus inhibitor, 2 h perfusion; scale 1-4
Description: Histology. Liver specimens were fixed in a 10% buffered formalin solution and embedded in paraffin. Sections were made at 4 μm and stained with H&E. The histologic severity of I/R injury was graded using International Banff Criteria (Int'l Banff Schema Conference Worksheet, The Third Int'l Banff Conference on Allograft Pathology, June 21-25 (1995)). Using these criteria, lobular disarray and ballooning changes are graded from 1-4, where no change is given a score of 1 and severe disarray or ballooning changes are given a score of 4.

[2] = tested on: HO-1; assay: ELISA for HO-1 protein expression in liver; design: species or system rat; conditions: ZnPP = pretreatment then CO perfusion; CO = CO only
Experimental: ELISA for HO-1 protein expression. Livers were homogenized on ice in a Tris-HCl lysis buffer (pH 7.4) containing 0.5% Triton X-100 and protease inhibitors. Flat-bottom microtiter 96-well plates (Nunc) were coated with 7 μg/ml anti-HO-1 mAb (OSA-111, Stressgen, Canada) in PBS for 18 h at room temperature. Unbound Ab was removed by washing (wash buffer: 0.05% Tween 20 in 50 mM phosphate buffer, pH 7.5) and remaining binding sites were blocked by incubation with a 5% BSA/PBS solution (1 h). Recombinant HO-1 (SPP-730) and tissue homogenate were diluted in assay diluent (0.5% BSA/0.05% Tween 20/PBS) and incubated in anti-HO-1 mAb coated wells for 1 h at room temperature. Subsequently, plates were washed three times with wash buffer and incubated with rabbit anti-HO-1 polyclonal antibody (SPA-895, Stressgen; diluted 1:1000 in assay diluent) for 30 min at room temperature. Bound rabbit IgG was detected with a donkey anti-rabbit (gG-HRP conjugate (711-035-152, Jackson Research Laboratories; diluted 1:8000 in assay diluent). Unbound secondary Ab was removed by washing and bound HRP was detected using 1 mg/ml OPD in substrate buffer (0.1% H2O2, 0.1 M citric acid, 0.2 M Na2HPO4, pH 5.0). The color reaction was stopped with 1 M HCl and the optical density at 490 nm was measured.

[3] = tested on: HO-1; assay: HO-1 enzymatic activity in liver homogenates; assay type: biochemical, rat; conditions: liver after perfusion; ZnPP = 1.5 mg/kg i.p. 24 h before harvest then CO perfusion; CO = CO only
Experimental: HO-1 Enzymatic Activity. Livers were homogenized on ice in a Tris-HCl lysis buffer (pH 7.4) containing 0.5% Triton X-100 and protease inhibitors. Samples were frozen in small aliquots until use. Homogenates (100 μl) were mixed with 0.8 mM NADPH, 0.8 mM glucose-6-phosphate 1.0 unit G-60P dehydrogenase, 1 mM MgCl2 and […] purified rat liver biliverdin reductase at 4° C. The reaction was initiated by the addition of hemin (final concentration 0.25 mM). The reaction mixture was incubated at 37° C. in the dark for 15 min. At the end of incubation period, any insoluble material was removed by centrifugation and supernatants were analyzed for bilirubin concentration. An extinction coefficient of 40 mM^−1 cm^−1 at A 460-530 was used to calculate the amount of bilirubin formed. Controls included naive samples in the absence of the NADPH generating system and all the ingredients of the reaction mixture in the absence of graft homogenates. Biliverdin reductase was purified from rat liver, as described in Browne and Ultrich, Mol. Pharmacol. 32:497-504 (1987).

[4] = tested on: rat liver; design: species or system Sprague Dawley (SD) rats; conditions: 2 h reperfusion, inhibitor given together with CO 300 ppm; for bile production / portal vein resistance: compared with CO alone
Description: Animals. Male Sprague Dawley (SD) rats weighing between 300-350 g (Harlan Sprague Dawley, Indianapolis, Ind.) were used. Animals were fed standard rodent chow and water and libitum and cared according to guidelines approved by the American Association of Laboratory Animal Care.
Isolated perfusion liver apparatus. An isolated perfusion liver apparatus was used, as described in Amersi et al., supra, and Maulik et al., Circulation 94:398-406 (1996). In brief, syngeneic rat blood, obtained for each experiment from four donor animals, was diluted to a hematocrit of 15% with Krebs Ringer Bicarbonate Buffer (mM: NaCl 118, KH2POF 1, MgSO4 0.9, CaCl2 2.5, dextrose 11.1, and NaHCO2 25), and maintained at pH of 7.4. The perfusate was pumped from a heated reservoir that warmed the perfusate to 37° C. through silastic tubing oxygenator connected to a flow meter that measured portal vein blood flow (Cole Palmer Instruments, Chicago, Ill.). Portal pressure was kept constant via a pressure monometer connected to a T fitting in the portal vein canula. […] During the experiment, pH, temperature and oxygenation were kept constant.
Ex vivo cold ischemia model. SD rats underwent isoflourane anesthesia and systemic heparinization. […] The livers were then stored for 24 h at 4° C. in UW solution, followed by ex-vivo reperfusion for 1-2 h on an isolated perfusion liver apparatus. Portal vein blood flow, pressure, and bile production were recorded every 30 min. Blood samples were collected at 30 min intervals and serum glutamic oxaloacetic transaminase (sGOT) levels were measured using an autoanalyzer from ANTECH Diagnostics (Irvine, Calif.). At the conclusion of experiment, a portion of the liver was snap frozen for mRNA extraction/Western blot analyses; the remaining samples were fixed in formalin for H&E staining.
The role of CO—HO-1 pathway in hepatic I/R injury was studied in five major treatment groups (n=4.8 rats/group). In Group 1, the extent of I/R injury was contrasted between livers perfused ex-vivo with blood saturated with CO (300 parts per million [ppm]; 0.03% balanced air) vs. air alone (21% O2). As NO may enhance HO-1 expression (Brouard et al., supra), we then investigated a link between the two gaseous molecules in Group 2 livers, which were perfused with CO supplemented with 25 mM NG-nitro-L-arginine methyl ester hydrochloride (L-NAME; Sigma Chemicals, St. Louis, Mo.), an inducible NO inhibitor. […] To analyze as to whether exogenous CO can substitute for HO-1 in preventing I/R insult, Group 4 rats were treated 24 h prior to liver procurement with ZnPP)(1.5 mg/kg/i.p; Porphyrin Products, Logan Utah), an HO-1 inhibitor, followed by ex vivo perfusion with CO. […] Brouard et al., supra. Therefore, Group 5 rats were pre-treated 60 min before harvest with p38 MAPK inhibitor, SB203580, a pyridinyl imidazol (25 mg/kg orally; Sigma). In addition, prior to reperfursion with CO, SB203580 (20 μM) was added to the perfusate.

[5] = tested on: IFN-γ; assay: Quantitative RT-PCR of cytokine mRNA in collagen-arthritis rats, IFN-γ; conditions: rat, in vivo
Experimental: (§1) Iodoform and bromoform were compared with methylene chloride as alternative carbon monoxide generating compounds, using the rat collagen arthritis model described in Example 6 above. Briefly, arthritis was induced in a Lovain strain of rats by immunizing the animals with Collagen Type II in Incomplete Freund's Adjuvant. Digitized radiographs were obtained at the completion of the study on day 28. Pharmacokinetics were also determined and the synovial tissue from the inflamed joints of the treated animals was harvested on Day 16 or Day 28 post-immunization. Disease systems were generally evident by Day 10.
(§2) Carboxyhemoglobin levels peaked within a few hours of administration but normalized within 24 hours without cumulative pharmacokinetic consequences. Messenger RNA (mRNA) from the treated animals was purified and specific mRNA levels for cytokines TNF, IL-6, and IFN-γ were quantitated by Quantitative RT-PCR.

[6] = tested on: Louvain rats immunized with collagen type II; assay: Rat collagen-arthritis model; assay type: in vivo; design: arthritic score / Arthritis Score / X-Ray Score: scale not given here; conditions: for structural damage by blinded radiographic scores: day 28; for efficacy in comparison with methylene chloride (RB2000): rat collagen arthritis model, arthritic score; for arthritic scores in comparison to methylene chloride treated rats: rat, in vivo
Experimental: To assess the therapeutic potential of methylene chloride as a carbon-monoxide generating compound in this disease model, female Louvain rats weighing between 120 and 150 g were injected intradermally with 0.5 mg native chicken collagen type II solubilized in 0.1M acetic acid and emulsified in incomplete Freund's adjuvant. At the onset of disease (around day 10) animals were divided into three groups. One group was treated daily with vehicle, the second and third groups with 100 mg/kg/day and 500 mg/kg/day methylene chloride (p.o.). Severity of disease was evaluated daily using a quantification method based on standardized levels of swelling and periarticular erythema. Animals were sacrificed on day 28. […] Compared to control animals these differences were statistically significant (p<0.02).
as §1

[7] = tested on: IL-6; assay: Quantitative RT-PCR of cytokine mRNA in collagen-arthritis rats, IL-6; conditions: rat, in vivo
Experimental: as §1, §2

[8] = tested on: TNF; assay: Quantitative RT-PCR of cytokine mRNA in collagen-arthritis rats, TNF; assay type: in vivo, rat; conditions: Day 28
Experimental: as §1, §2

[9] = Blood carboxyhemoglobin after alkyl halide administration; assay type: in vivo; conditions: 100 mg/kg
Experimental: The ability of the trihalomethanes iodoform and bromoform to act as carbon monoxide generating compounds was assayed in comparison with methylene chloride.

[10] = tested on: Lewis rats; assay: Experimental autoimmune encephalomyelitis (EAE) model of multiple sclerosis; assay type: in vivo, rat; conditions: daily oral administration from day 8 post-inoculation; scale 0 to 3
Experimental: Multiple sclerosis is characterized by an autoimmune and inflammatory response directed against myelin sheath and oligodendrocytes, resulting in demyelination in the central nervous system. A well-established animal model of multiple sclerosis, experimental autoimmune encephalomyelitis (EAE), was used to examine the effect of the subject alkyl halides on this autoimmune and inflammatory condition of the central nervous system. Lewis rats were given intradermal footpad injections of 50 μg guinea pig myelin basic protein (MBP) and complete Freund's adjuvant (CFA) to induce experimental allergic encephalomyelitis (EAE). Daily oral administration of vehicle, methylene chloride or iodoform was started on day 8 post-inoculation and continued to the end of the study. Animals were monitored and scored on a 0 (normal) to 3 (complete hindlimb paralysis) scale. Daily mean±SD clinical scores are shown.

With `C=CC1=C(C)c2cc3[n-]c(cc4[n-]c(cc5nc(cc1n2)C(C)=C5C=C)c(C)c4CCC(=O)O)c(CCC(=O)O)c3C.[Zn+2]` [ZnPP] the “Banff score of I/R injury” value [1] was 1.5±0.0, the “HO-1 protein expression in liver samples (ELISA)” value [2] was 0.85±0.62 ng of HO-1/mg lysate and the HO-1 enzyme activity [3] was 0.95±0.06 nmol of bilirubin/mg/protein/min. For the same molecule, the bile production [4] was “increased bile production”, the portal vein resistance [4] was “decreased portal vein resistance” and the sGOT release [4] was 202±11 IU/L.
For `BrC(Br)Br` [bromoform], the “mRNA levels for IFN-γ compared to methylene chloride treated rats” value [5] was “substantially lower”, the “Arthritis Score” value ([6]; Day 28, dose 250 mg/kg) was 5.5 ± 0.86 and the “X-Ray Score” value ([6]; Day 28, dose 250 mg/kg) was 2.75 ± 0.81. The “structural damage by blinded radiographic scores” value [6] was “significantly inhibited structural damage”, the “efficacy in comparison with methylene chloride (RB2000)” value [6] was “superior efficacy” and the “arthritic scores in comparison to methylene chloride treated rats” value [6] was “significantly lower”. The “mRNA levels for IL-6 compared to methylene chloride treated rats” value [7] was “substantially lower”, the “mRNA levels for TNF compared to methylene chloride treated rats” value [8] was “higher” and the “COHb level in comparison with the same amount of methylene chloride” value [9] was “higher COHb level”.
With `C[S+]([O-])c1ccc(-c2nc(-c3ccncc3)c(-c3ccc(F)cc3)[nH]2)cc1` (centres unmarked) [SB203580] the bile production [4] was “significantly less bile”, the portal vein resistance [4] was “significant increase in portal vein resistance” and the sGOT release [4] was 352±21 IU/L.
In the case of `O=C1C(Nc2ccccc2)=CC(=O)c2ncccc21` [LY-83583, 6-anilino-5,8-quinalinedone], the bile production [4] is reported as “comparable”, the portal vein resistance [4] is reported as “slightly increased” and the sGOT release [4] is reported as 186±21 IU/L.
For `IC(I)I` [iodoform], the “mRNA levels for IFN-γ compared to methylene chloride treated rats” value [5] was “substantially lower”, the “Arthritis Score” value ([6]; Day 28, dose 100 mg/kg) was 3.62 ± 0.99 and the “X-Ray Score” value ([6]; Day 28, dose 100 mg/kg) was 1.50 ± 0.80. For the same molecule, the “Arthritis Score” value ([6]; Day 28, dose 175 mg/kg) was 3.16 ± 0.99, the “X-Ray Score” value ([6]; Day 28, dose 175 mg/kg) was 1.90 ± 0.64 and the “Arthritis Score” value ([6]; Day 28, dose 250 mg/kg) was 1.85 ± 0.91. For the same molecule, the “X-Ray Score” value ([6]; Day 28, dose 250 mg/kg) was 0.85 ± 0.45, the “structural damage by blinded radiographic scores” value [6] was “significantly inhibited structural damage” and the “efficacy in comparison with methylene chloride (RB2000)” value [6] was “superior efficacy”. For the same molecule, the “arthritic scores in comparison to methylene chloride treated rats” value [6] was “significantly lower”, the “mRNA levels for IL-6 compared to methylene chloride treated rats” value [7] was “substantially lower” and the “mRNA levels for TNF compared to methylene chloride treated rats” value [8] was “higher”. The “COHb level in comparison with the same amount of methylene chloride” value [9] was “higher COHb level” and the “clinical score / clinical signs” value [10] was “did not display any clinical signs”.
With `COC(=O)[C@@H](N)CCCN=C(N)N[N+](=O)[O-].Cl` [L-NAME, NG-nitro-L-arginine methyl ester hydrochloride] the bile production [4] was “increase in bile production”, the portal vein resistance [4] was “decrease in portal vein resistance” and the sGOT release [4] was 191±16 IU/L.
